Results on nine compounds are retold here after article PMC12775819, “Optimizing PSMA-617-based inhibitors through charged linker modifications: Insights into structure-activity relationships” (Theranostics, 2026).

Series [1] can be described thus: Partition coefficient (logD), n-octanol/PBS pH 7.4. The class given is physicochemical. The conditions noted are these: 68Ga-labeled compounds, mean ± SD, read-out: Partition Coefficient [logDoctanol/PBS]. How it is done:
To determine the lipophilicity expressed as distribution coefficient (logD), a two-phase system of n-octanol (500 µl) and phosphate buffered saline (PBS) (490 µl) at pH 7.4 was used (n = 4). Compounds were radiolabeled with [^68Ga]Ga^3+ and the mixture diluted to a concentration of 0.25 µM in PBS. 10 µl of the 0.25 µM dilution were added to the n-octanol / PBS mixture. After extensive mixing, the 2-phase system was centrifuged for 10 min at 14,000 rpm and 4 °C. Two samples from each phase (100 µl) were taken and measured in a γ-gamma counter (PerkinElmer, Waltham, USA). […] The data is presented as the mean value with the standard deviation (SD).

For series [2], the system named is PSMA-positive LNCaP cells. Nature of the series: Surface binding and internalization of 68Ga-labeled compounds. In kind it is cell-based, human. The following applies: for Internalization Block / Surface Binding Block / Internalization / Surface Binding: 30 nM, 45 min, 37 °C; for Internalization Block / Surface Binding Block: blocked with 2-PMPA 500 µM; for Internalization / Surface Binding: unblocked; for Specific Internalization / Specific Surface Binding: difference of unblocked and blocked values. How it is done:
The PSMA-positive human cell line LNCaP (human lymph node carcinoma of the prostate; ATCC CRL-1740) was cultivated adherently at 37 °C and humidified 5% CO2 with RPMI-1640 (Thermo Fisher Scientific, Germany) supplemented with 10% fetal bovine serum (Sigma-Aldrich, Germany), 1% sodium pyruvate (Life Technologies, Germany) and 1% penicillin/[…] (Thermo Fisher Scientific, Germany). A mixture of trypsin/ethylenediaminetetraacetic acid (0.05% / 0.02%; Thermo Fisher Scientific, Germany) was used for cell harvesting (last authentication: April 2024).
Internalization assays were performed on poly-L-lysine coated 24-well cell culture plates. The day before the experiment, LNCaP cells (10^5 cells/well) were harvested and seeded to the wells. The cells were incubated with the ^68Ga-labeled compounds (250 µl, 30 nM, diluted in RPMI medium) for 45 min at 37 °C. […] The medium was then removed and the cells washed with ice-cold PBS buffer (3 × 1 ml). To remove surface bound compounds, ice-cold glycine buffer (2 × 0.5 ml, 50 mM, pH 2.8) was added to the wells and collected after 5 min in a combined fraction. After washing once with PBS (1 ml), NaOH (0.5 ml, 0.3 M) was added to the cells for lysation. Collected surface-bound, internalized fractions and standards from the stock solutions (25 µl) were measured in a γ-counter. Data was normalized and presented as percentage of the initially added radioactivity bound to 10^5 cells [%IA/10^5 cells].

A further series can be described thus: in vivo. The following applies: male, BALB/c nu/nu, mouse, iv, 500 pmol, total radioactivity.

The structures appear in SMILES notation. Non-standard residues stand in square brackets, D forms with d. Residues, ends and D or L forms follow the SMILES beside them. *: point of attachment. DOTA = O=C(O)CN1CCN(CC(=O)O)CCN(CC(=O)*)CCN(CC(=O)O)CC1; EuK = O=C(O)CC[C@H](NC(=O)N[C@@H](CCCCN*)C(=O)O)C(=O)O; 2Nal = N[C@@H](Cc1ccc2ccccc2c1)C(=O)O; Trx = NC[C@H]1CC[C@H](C(=O)O)CC1

`O=C(O)CC[C@H](NC(=O)N[C@@H](CCCCNC(=O)[C@H](Cc1c[nH]cn1)NC(=O)[C@H](CCC(=O)O)NC(=O)[C@H](Cc1c[nH]cn1)NC(=O)[C@H](CCC(=O)O)NC(=O)[C@H](Cc1c[nH]cn1)NC(=O)[C@H](CCC(=O)O)NC(=O)[C@H](Cc1ccc2ccccc2c1)NC(=O)[C@H]1CC[C@H](CNC(=O)CN2CCN(CC(=O)O)CCN(CC(=O)O)CCN(CC(=O)O)CC2)CC1)C(=O)O)C(=O)O` [PS1, EuK-(HE)3-NaI-ChX-DOTA] ({DOTA-Trx}-[2Nal]EHEHEH-EuK): the logD in series [1] was -3.5 ± 0.2. In series [2], the “Internalization Block” value is given as 0.314 ± 0.024 %Binding / %Internalization, the “Surface Binding Block” value is 0.069 ± 0.012 %Binding / %Internalization, the Internalization is reported as 0.66 ± 0.14 %Binding / %Internalization and the “Surface Binding” value was 1.15 ± 0.17 %Binding / %Internalization. In series [2], the “Specific Internalization” value is 0.35 ± 0.3 %Binding / %Internalization and the “Specific Surface Binding” value is reported as 1.09 ± 0.34 %Binding / %Internalization. Further, in “in vivo” (SUV kidneys), the SUV at 1 h stood at 1.71 ± 0.2 SUV and the SUV at 2 h turned out to be 1.32 ± 0.15 SUV. For the same compound, in the series “in vivo” (SUV muscle), the SUV at 1 h worked out at 0.09 ± 0.01 SUV and the SUV at 2 h was 0.08 ± 0.02 SUV. Further, in the series “in vivo” (SUV tumor), the SUV at 1 h was found to be 0.43 ± 0.06 SUV and the SUV at 2 h is 0.3 ± 0.11 SUV.
With `O=C(O)CC[C@H](NC(=O)N[C@@H](CCCCNC(=O)[C@H](Cc1ccc2ccccc2c1)NC(=O)[C@H](Cc1c[nH]cn1)NC(=O)[C@H](CCC(=O)O)NC(=O)[C@H](Cc1c[nH]cn1)NC(=O)[C@H](CCC(=O)O)NC(=O)[C@H](Cc1c[nH]cn1)NC(=O)[C@H](CCC(=O)O)NC(=O)[C@H]1CC[C@H](CNC(=O)CN2CCN(CC(=O)O)CCN(CC(=O)O)CCN(CC(=O)O)CC2)CC1)C(=O)O)C(=O)O` [PS2, EuK-NaI-(HE)3-ChX-DOTA] ({DOTA-Trx}-EHEHEH[2Nal]-EuK), in series [1], the logD was -3.4 ± 0.3. For the same compound, in series [2], the “Internalization Block” value is on record as 0.21 ± 0.036 %Binding / %Internalization, the “Surface Binding Block” value is reported as 0.183 ± 0.024 %Binding / %Internalization, the Internalization is 0.55 ± 0.04 %Binding / %Internalization and the “Surface Binding” value is given as 1.01 ± 0.14 %Binding / %Internalization. In series [2], the “Specific Internalization” value is 0.34 ± 0.24 %Binding / %Internalization and the “Specific Surface Binding” value is 0.83 ± 0.27 %Binding / %Internalization. Further, in “in vivo” (SUV kidneys), the SUV at 1 h came to 1.64 ± 0.1 SUV and the SUV at 2 h worked out at 1.01 ± 0.09 SUV. In addition, in the series “in vivo” (SUV muscle), the SUV at 1 h came out at 0.11 ± 0.02 SUV and the SUV at 2 h amounted to 0.11 ± 0.01 SUV. Also, in “in vivo” (SUV tumor), the SUV at 1 h amounted to 0.78 ± 0.05 SUV and the SUV at 2 h was found to be 0.74 ± 0.06 SUV.
Take `O=C(O)CC[C@H](NC(=O)N[C@@H](CCCCNC(=O)[C@H](CCC(=O)O)NC(=O)[C@H](CCC(=O)O)NC(=O)[C@H](CCC(=O)O)NC(=O)[C@H](Cc1ccc2ccccc2c1)NC(=O)[C@H]1CC[C@H](CNC(=O)CN2CCN(CC(=O)O)CCN(CC(=O)O)CCN(CC(=O)O)CC2)CC1)C(=O)O)C(=O)O` [PS6, EuK-E3-NaI-ChX-DOTA] ({DOTA-Trx}-[2Nal]EEE-EuK): the logD in series [1] is -3.1 ± 0.3. The SUV at 1 h was 1.53 ± 0.08 SUV in the series “in vivo” (SUV kidneys), 0.11 ± 0.02 SUV in “in vivo” (SUV muscle) and 0.69 ± 0.07 SUV in “in vivo” (SUV tumor). For the same compound, the SUV at 2 h turned out to be 0.4 ± 0.05 SUV in the series “in vivo” (SUV kidneys), 0.11 ± 0.02 SUV in “in vivo” (SUV muscle) and 0.85 ± 0.08 SUV in the series “in vivo” (SUV tumor).
Take `O=C(O)CC[C@H](NC(=O)N[C@@H](CCCCNC(=O)[C@H](Cc1ccc2ccccc2c1)NC(=O)[C@H](CCC(=O)O)NC(=O)[C@H](CCC(=O)O)NC(=O)[C@H](CCC(=O)O)NC(=O)[C@H]1CC[C@H](CNC(=O)CN2CCN(CC(=O)O)CCN(CC(=O)O)CCN(CC(=O)O)CC2)CC1)C(=O)O)C(=O)O` [PS7, EuK-NaI-E3-ChX-DOTA] ({DOTA-Trx}-EEE[2Nal]-EuK): in series [1], the logD was -3.3 ± 0.1. The SUV at 1 h in the series “in vivo” (SUV kidneys) was found to be 1.6 ± 0.12 SUV; in the series “in vivo” (SUV muscle), 0.09 ± 0.01 SUV; in the series “in vivo” (SUV tumor) it was 0.71 ± 0.05 SUV. Also, the SUV at 2 h in the series “in vivo” (SUV kidneys) came to 0.59 ± 0.06 SUV; in “in vivo” (SUV muscle), 0.12 ± 0.02 SUV; in “in vivo” (SUV tumor) it was 0.56 ± 0.08 SUV.
As to `O=C(O)CC[C@H](NC(=O)N[C@@H](CCCCNC(=O)[C@H](Cc1ccc2ccccc2c1)NC(=O)[C@H]1CC[C@H](CNC(=O)[C@H](CCC(=O)O)NC(=O)[C@H](CCC(=O)O)NC(=O)[C@H](CCC(=O)O)NC(=O)CN2CCN(CC(=O)O)CCN(CC(=O)O)CCN(CC(=O)O)CC2)CC1)C(=O)O)C(=O)O` [PS8, EuK-NaI-ChX-E3-DOTA] ({DOTA}-EEE[Trx][2Nal]-EuK), the logD in series [1] was -3 ± 0.1. Besides, the SUV at 1 h in the series “in vivo” (SUV kidneys) is 3.89 ± 0.65 SUV; in “in vivo” (SUV muscle), 0.08 ± 0.02 SUV; in “in vivo” (SUV tumor), 1.32 ± 0.08 SUV. In addition, the results for the SUV at 2 h in “in vivo” (SUV kidneys), in the series “in vivo” (SUV muscle) and in the series “in vivo” (SUV tumor) were 2.7 ± 0.89 SUV, 0.11 ± 0.02 SUV and 0.86 ± 0.39 SUV, respectively.
For `O=C(O)CC[C@H](NC(=O)N[C@@H](CCCCNC(=O)[C@H](Cc1c[nH]cn1)NC(=O)[C@H](Cc1c[nH]cn1)NC(=O)[C@H](Cc1c[nH]cn1)NC(=O)[C@H](Cc1ccc2ccccc2c1)NC(=O)[C@H]1CC[C@H](CNC(=O)CN2CCN(CC(=O)O)CCN(CC(=O)O)CCN(CC(=O)O)CC2)CC1)C(=O)O)C(=O)O` [PS9, EuK-H3-NaI-ChX-DOTA] ({DOTA-Trx}-[2Nal]HHH-EuK), in series [1], the logD is -3.2 ± 0.1. For the same compound, the values for the SUV at 1 h in “in vivo” (SUV kidneys), in “in vivo” (SUV muscle) and in “in vivo” (SUV tumor) were 0.98 ± 0.09 SUV, 0.082 ± 0.002 SUV and 0.21 ± 0.05 SUV, respectively. In addition, the values for the SUV at 2 h in “in vivo” (SUV kidneys), in the series “in vivo” (SUV muscle) and in the series “in vivo” (SUV tumor) were 0.74 ± 0.09 SUV, 0.07 ± 0.03 SUV and 0.12 ± 0.03 SUV, respectively.
On to `O=C(O)CC[C@H](NC(=O)N[C@@H](CCCCNC(=O)[C@H](Cc1ccc2ccccc2c1)NC(=O)[C@H](Cc1c[nH]cn1)NC(=O)[C@H](Cc1c[nH]cn1)NC(=O)[C@H](Cc1c[nH]cn1)NC(=O)[C@H]1CC[C@H](CNC(=O)CN2CCN(CC(=O)O)CCN(CC(=O)O)CCN(CC(=O)O)CC2)CC1)C(=O)O)C(=O)O` [PS10, EuK-NaI-H3-ChX-DOTA] ({DOTA-Trx}-HHH[2Nal]-EuK), for which the logD in series [1] was -3.7 ± 0.6. Besides, the SUV at 1 h in “in vivo” (SUV kidneys) amounted to 8.13 ± 1.31 SUV; in the series “in vivo” (SUV muscle), 0.21 ± 0.03 SUV; in the series “in vivo” (SUV tumor) it was 0.65 ± 0.04 SUV. Further, the SUV at 2 h in the series “in vivo” (SUV kidneys) is 1.09 ± 0.06 SUV; in “in vivo” (SUV muscle) it was 0.06 ± 0.02 SUV; in “in vivo” (SUV tumor), 0.37 ± 0.05 SUV.
Turning to `O=C(O)CC[C@H](NC(=O)N[C@@H](CCCCNC(=O)[C@H](Cc1ccc2ccccc2c1)NC(=O)[C@H]1CC[C@H](CNC(=O)[C@H](Cc2c[nH]cn2)NC(=O)[C@H](Cc2c[nH]cn2)NC(=O)[C@H](Cc2c[nH]cn2)NC(=O)CN2CCN(CC(=O)O)CCN(CC(=O)O)CCN(CC(=O)O)CC2)CC1)C(=O)O)C(=O)O` [PS11, EuK-NaI-ChX-H3-DOTA] ({DOTA}-HHH[Trx][2Nal]-EuK), the logD in series [1] was -3.6 ± 0.1. The SUV at 1 h in the series “in vivo” (SUV kidneys) stood at 1.24 ± 0.08 SUV; in “in vivo” (SUV muscle), 0.11 ± 0.02 SUV; in “in vivo” (SUV tumor) it was 0.82 ± 0.07 SUV. Also, the values for the SUV at 2 h in the series “in vivo” (SUV kidneys), in the series “in vivo” (SUV muscle) and in the series “in vivo” (SUV tumor) were 0.77 ± 0.13 SUV, 0.1 ± 0.03 SUV and 0.88 ± 0.09 SUV, respectively.
For the compound `O=C(O)CC[C@H](NC(=O)N[C@@H](CCCCNC(=O)[C@H](CCC(=O)O)NC(=O)[C@H](CCC(=O)O)NC(=O)[C@H](CCC(=O)O)NC(=O)[C@H](Cc1ccc2ccccc2c1)NC(=O)[C@H]1CC[C@H](CNC(=O)CN2CCN(CC(=O)O)CCN(CC(=O)O)CCN(CC(=O)O)CC2)CC1)C(=O)O)C(=O)O` [[^68Ga]Ga-PS6, metal not drawn] ({DOTA-Trx}-[2Nal]EEE-EuK), in “in vivo”, the tissue to tissue ratio at 1 h was 0.44 ± 0.15 and the tissue to tissue ratio at 2 h came to 2.15 ± 0.22.
